# Assay results from patent publication US4001325A, “α-Chloroacetanilide selective herbicides” (Diamond Shamrock Corporation, priority 1973, dated 1977).
# What was measured:
# [1] = tested on: broadleaf species: pigweed, velvetleaf, morningglory; assay: Greenhouse preemergence herbicide test, broadleaves; assay type: in vivo; details: two weeks after treatment, 20160 min
# Protocol: (§1) To illustrate the preemergence herbicidal efficiency of the alkyl-substituted 2-chloro-N-propargylacetanilides of this invention, test formulations are prepared of each compound by mixing 20 ml of an acetone solution containing 0.125 g of chemical with 20 ml of water containing 0.01 g of Triton X-155 surfactant. The resultant formulations contain 3125 ppm of test compound, 50% by volume of acetone and 0.025% by weight of surfactant. Appropriate lower concentrations are obtained by diluting this formulation with surfactant-acetone solution so that the concentration of adjuvants is maintained at the original levels.
# (§2) Seeds of three broadleaf and three grass species are planted in soil contained in 10 inch × 8 inch × 3 inch aluminum pans filled with 1.5 inches of composted soil. The broadleaf species are pigweed (Amaranthus retroflexus), velvetleaf (Abutilon theophrasti), and morningglory (Ipomea coccinea); the grasses are red millet (Panicum milliacem), green foxtail (Setaria viridis) and Japanese millet (Echinochloa frumentacea).
# (§3) The seeded pans are sprayed so that the soil surface is uniformly covered with dilutions of the stock formulation providing dosage rates of the test compounds as shown in the following table.
# (§4) Two weeks after treatment, percent control (plant kill) at each dosage rate is estimated with results as follows: […]
# [2] = tested on: grass species: red millet, green foxtail, Japanese millet; assay: Greenhouse preemergence herbicide test, grasses; assay type: in vivo, Panicum milliacem, Setaria viridis, Echinochloa frumentacea; details: pre-emergence, 336 h, two weeks after treatment; for pest or weed control at 69.4927 g/ha: 0.062 lb/A; for pest or weed control at 140.106 g/ha: 0.125 lb/A; for pest or weed control at 280.212 g/ha: 0.25 lb/A; for pest or weed control at 560.425 g/ha: 0.5 lb/A; for pest or weed control at 1120.85 g/ha: 1.0 lb/A
# Protocol: as §1, §2, §3, §4
# [3] = tested on: Common Lambsquarter; assay: Field preemergence test, weed control; assay type: in vivo; details: 3-4 weeks after planting
# From the text: (§5) Test plots of fertilized, light sandy soil containing 0.7% organic matter are sprayed uniformly with aqueous suspensions prepared from emulsifiable concentrates containing 12%, by weight, of the test chemicals diluted to provide dosage rates of the test compounds corresponding to 2.0, 1.0, 0.5, and 0.25 pound per acre (lb/A). The plots are then sown with seeds of the following crop plants: sweet corn, cotton (Coker 413) and soybeans, var. Davis. Seeds of the following weed plants are planted: redroot pigweed, prickly sida, common lambsquarter, goosegrass and giant foxtail.
# (§6) Three to four weeks after planting, percent control (plant kill) of the test plants is estimated, from a rating of 0 which denotes no injury to the plant up to 100 which denotes complete destruction. The herbicidal action of the test compounds obtained on the weed species is as follows: […]
# [4] = tested on: Giant Foxtail; assay: Field preemergence test, weed control; assay type: in vivo; details: 3-4 weeks after planting
# From the text: as §5, §6
# [5] = tested on: Goosegrass; assay: Field preemergence test, weed control; assay type: in vivo; details: 3-4 weeks after planting
# From the text: as §5, §6
# [6] = tested on: Prickly Sida; assay: Field preemergence test, weed control; assay type: in vivo; details: 3-4 weeks after planting
# From the text: as §5, §6
# [7] = tested on: Redroot Pigweed; assay: Field preemergence test, weed control; assay type: in vivo; details: 3-4 weeks after planting
# From the text: as §5, §6
# [8] = tested on: Corn; assay: Field preemergence test, phytotoxic effects on crop; assay type: in vivo, sweet corn
# From the text: as §5
# (§7) Three to four weeks after planting, percent control (plant kill) of the test plants is estimated, from a rating of 0 which denotes no injury to the plant up to 100 which denotes complete destruction. The herbicidal action of the test compounds obtained on the weed species is as follows:
# (§8) Phytotoxic effects observed on the crop species is estimated with results as follows: […]
# [9] = tested on: Cotton; assay: as above; assay type: in vivo, cotton (Coker 413)
# From the text: as §5, §7, §8
# [10] = tested on: Soybeans; assay: as above; assay type: in vivo, var. Davis
# From the text: as §5, §7, §8
SMILES,"% Control, Broadleaves ([1]; 0.5 lb/A) [%]","% Control, Broadleaves ([1]; 1.0 lb/A) [%]",pest or weed control at 69.4927 g/ha [2] [%],pest or weed control at 140.106 g/ha [2] [%],pest or weed control at 280.212 g/ha [2] [%],pest or weed control at 560.425 g/ha [2] [%],pest or weed control at 1120.85 g/ha [2] [%],"% Weed Control, Common Lambsquarter ([3]; 0.25 lb/A) [%]","% Weed Control, Common Lambsquarter ([3]; 0.5 lb/A) [%]","% Weed Control, Common Lambsquarter ([3]; 1.0 lb/A) [%]","% Weed Control, Common Lambsquarter ([3]; 2.0 lb/A) [%]","% Weed Control, Giant Foxtail ([4]; 0.25 lb/A) [%]","% Weed Control, Giant Foxtail ([4]; 0.5 lb/A) [%]","% Weed Control, Giant Foxtail ([4]; 1.0 lb/A) [%]","% Weed Control, Giant Foxtail ([4]; 2.0 lb/A) [%]","% Weed Control, Goosegrass ([5]; 0.25 lb/A) [%]","% Weed Control, Goosegrass ([5]; 0.5 lb/A) [%]","% Weed Control, Goosegrass ([5]; 1.0 lb/A) [%]","% Weed Control, Goosegrass ([5]; 2.0 lb/A) [%]","% Weed Control, Prickly Sida ([6]; 0.25 lb/A) [%]",also measured
"C#CCN(C(=O)CCl)c1ccccc1C [Example 10, 2-Chloro-2'-methyl-N-propargylacetanilide]",0,35,0,55,85,80,90,40,60,95,95,0,20,70,80,53,78,92,97,0,"% Control, Broadleaves ([1]; 0.062 lb/A): 0%; % Control, Broadleaves ([1]; 0.125 lb/A): 0%; % Control, Broadleaves ([1]; 0.25 lb/A): 0%; % Weed Control, Prickly Sida ([6]; 0.5 lb/A): 0%; % Weed Control, Prickly Sida ([6]; 1.0 lb/A): 0%; % Weed Control, Prickly Sida ([6]; 2.0 lb/A): 25%; % Weed Control, Redroot Pigweed ([7]; 0.25 lb/A): 0%; % Weed Control, Redroot Pigweed ([7]; 0.5 lb/A): 27%; % Weed Control, Redroot Pigweed ([7]; 1.0 lb/A): 45%; % Weed Control, Redroot Pigweed ([7]; 2.0 lb/A): 67%; % Crop Kill, Corn ([8]; 0.5 lb/A): 0%; % Crop Kill, Corn ([8]; 1.0 lb/A): 0%; % Crop Kill, Corn ([8]; 2.0 lb/A): 0%; % Crop Kill, Cotton ([9]; 0.5 lb/A): 0%; % Crop Kill, Cotton ([9]; 1.0 lb/A): 3%; % Crop Kill, Cotton ([9]; 2.0 lb/A): 3%; % Crop Kill, Soybeans ([10]; 0.5 lb/A): 0%; % Crop Kill, Soybeans ([10]; 1.0 lb/A): 0%; % Crop Kill, Soybeans ([10]; 2.0 lb/A): 0%"
"C#CCN(C(=O)CCl)c1ccccc1CC [Example 11, 2-Chloro-2'-ethyl-N-propargylacetanilide]",0,35,0,55,80,90,95,50,70,100,100,0,23,45,90,62,82,100,100,0,"% Weed Control, Prickly Sida ([6]; 0.5 lb/A): 13%; % Weed Control, Prickly Sida ([6]; 1.0 lb/A): 33%; % Weed Control, Prickly Sida ([6]; 2.0 lb/A): 57%; % Weed Control, Redroot Pigweed ([7]; 0.25 lb/A): 33%; % Weed Control, Redroot Pigweed ([7]; 0.5 lb/A): 75%; % Weed Control, Redroot Pigweed ([7]; 1.0 lb/A): 80%; % Weed Control, Redroot Pigweed ([7]; 2.0 lb/A): 98%; % Crop Kill, Corn ([8]; 0.5 lb/A): 0%; % Crop Kill, Corn ([8]; 1.0 lb/A): 0%; % Crop Kill, Corn ([8]; 2.0 lb/A): 0%; % Crop Kill, Cotton ([9]; 0.5 lb/A): 0%; % Crop Kill, Cotton ([9]; 1.0 lb/A): 10%; % Crop Kill, Cotton ([9]; 2.0 lb/A): 18%; % Crop Kill, Soybeans ([10]; 0.5 lb/A): 0%; % Crop Kill, Soybeans ([10]; 1.0 lb/A): 0%; % Crop Kill, Soybeans ([10]; 2.0 lb/A): 3%"
"C#CCN(C(=O)CCl)c1c(C)cccc1C(C)C [Example 12, 2-Chloro-2'-methyl-6'-isopropyl-N-propargylacetanilide]",,0,45,65,,70,90,,,,,,,,,,,,,,"% Control, Broadleaves ([1]; 2.0 lb/A): 40%; pest or weed control at 2241.7 g/ha ([2]; 2.0 lb/A): 90%"
"C#CCN(C(=O)CCl)c1c(C(C)C)cccc1C(C)C [Example 13, 2-Chloro-2',6'-diisopropyl-N-propargylacetanilide]",,0,,20,50,90,90,,,,,,,,,,,,,,
"C#CCN(C(=O)CCl)c1c(CC)cccc1C(C)C [Example 14, 2-Chloro-2'-ethyl-6'-isopropyl-N-propargylacetanilide]",,0,,40,40,80,100,,,,,,,,,,,,,,
"C#CCN(C(=O)CCl)c1ccccc1C(C)C [Example 16, 2-Chloro-2'-isopropyl-N-propargylacetanilide]",,0,,,80,90,100,,,,,,,,,,,,,,
